Laboratory results as given in paper PMC8185074, “Anchor extension: a structure-guided approach to design cyclic peptides targeting enzyme active sites” (Nature Communications, 2021).
Peptide text beside a SMILES is read from it.

Key:
Format in all cases: biochemical
HDAC3 = biological target: T1, HDAC3 (Homo sapiens, UniProt O15379); experiment: HDAC3 inhibition, full IC50 measurement (Reaction Biology; fluorogenic p53 peptide RHKK(Ac)AMC)
T1 construct: purchased Reaction Biology Corporation (assay run by the CRO)
Summary of the method: (§1)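 Reaction: enzyme plus acoustically dispensed peptide inhibitor, 50 μM RHKK(Ac)AMC substrate, pH 8.0 Tris buffer with BSA and 1% DMSO, 1 h, 30 °C. Duplicates averaged.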

HDAC1 = biological target: T2, HDAC1 (Homo sapiens, UniProt Q13547); experiment: HDAC1 inhibition, full IC50 measurement (Reaction Biology; fluorogenic p53 peptide RHKK(Ac)AMC); details: t1/t2 replicates
T2 construct: purchased Reaction Biology Corporation (assay run by the CRO)
Summary of the method: as §1

HDAC6 = biological target: T3, HDAC6 (Homo sapiens, UniProt Q9UBN7); experiment: HDAC6 inhibition, full IC50 measurement (Reaction Biology; fluorogenic p53 peptide RHKK(Ac)AMC)
T3 construct: purchased Reaction Biology Corporation (assay run by the CRO)
T3 sequence (Q9UBN7 1-1215): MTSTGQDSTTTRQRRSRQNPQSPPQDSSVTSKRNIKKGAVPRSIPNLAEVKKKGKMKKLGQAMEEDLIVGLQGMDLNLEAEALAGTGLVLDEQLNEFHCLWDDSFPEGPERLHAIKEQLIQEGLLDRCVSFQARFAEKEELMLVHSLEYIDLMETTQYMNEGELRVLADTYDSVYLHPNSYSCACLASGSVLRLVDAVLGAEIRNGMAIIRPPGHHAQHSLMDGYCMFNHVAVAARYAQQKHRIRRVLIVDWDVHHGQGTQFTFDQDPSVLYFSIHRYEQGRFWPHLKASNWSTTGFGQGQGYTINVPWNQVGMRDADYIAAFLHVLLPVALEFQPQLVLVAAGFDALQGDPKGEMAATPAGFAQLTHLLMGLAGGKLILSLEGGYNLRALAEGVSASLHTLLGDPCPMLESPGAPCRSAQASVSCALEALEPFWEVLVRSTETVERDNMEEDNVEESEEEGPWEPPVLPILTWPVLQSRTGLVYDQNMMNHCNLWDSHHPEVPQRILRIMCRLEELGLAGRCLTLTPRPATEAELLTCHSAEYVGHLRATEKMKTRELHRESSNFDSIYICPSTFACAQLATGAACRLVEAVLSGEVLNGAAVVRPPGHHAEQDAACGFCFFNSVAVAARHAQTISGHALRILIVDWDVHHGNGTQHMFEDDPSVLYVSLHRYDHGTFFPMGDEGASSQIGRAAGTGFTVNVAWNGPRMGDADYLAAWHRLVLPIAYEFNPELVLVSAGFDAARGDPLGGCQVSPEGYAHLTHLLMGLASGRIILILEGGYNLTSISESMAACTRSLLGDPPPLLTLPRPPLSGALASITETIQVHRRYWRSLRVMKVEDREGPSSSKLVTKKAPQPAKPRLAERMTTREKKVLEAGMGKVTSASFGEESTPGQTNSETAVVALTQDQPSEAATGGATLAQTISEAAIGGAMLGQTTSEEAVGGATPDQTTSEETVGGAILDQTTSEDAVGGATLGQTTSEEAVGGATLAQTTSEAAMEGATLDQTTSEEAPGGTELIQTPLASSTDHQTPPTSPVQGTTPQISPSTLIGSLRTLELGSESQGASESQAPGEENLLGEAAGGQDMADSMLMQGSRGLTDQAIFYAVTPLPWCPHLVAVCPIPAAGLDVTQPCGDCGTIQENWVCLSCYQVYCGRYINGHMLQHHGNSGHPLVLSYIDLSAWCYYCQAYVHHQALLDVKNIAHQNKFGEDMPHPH
Summary of the method: as §1

T1 sequence (O15379 whole entry): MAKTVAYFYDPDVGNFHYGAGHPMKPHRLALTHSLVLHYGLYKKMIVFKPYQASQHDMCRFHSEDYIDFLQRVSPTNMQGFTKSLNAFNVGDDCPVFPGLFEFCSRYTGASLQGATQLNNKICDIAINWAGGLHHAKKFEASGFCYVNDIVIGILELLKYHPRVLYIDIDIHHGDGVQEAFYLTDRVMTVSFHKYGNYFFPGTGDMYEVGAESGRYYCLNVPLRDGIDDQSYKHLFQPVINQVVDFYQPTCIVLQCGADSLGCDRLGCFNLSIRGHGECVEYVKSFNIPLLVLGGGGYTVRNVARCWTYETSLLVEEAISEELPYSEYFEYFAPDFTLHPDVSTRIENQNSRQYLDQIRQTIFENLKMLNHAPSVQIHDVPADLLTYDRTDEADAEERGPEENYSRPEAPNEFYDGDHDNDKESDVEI
T1 sequence (Q9Y618 395-489 partner limits assumed): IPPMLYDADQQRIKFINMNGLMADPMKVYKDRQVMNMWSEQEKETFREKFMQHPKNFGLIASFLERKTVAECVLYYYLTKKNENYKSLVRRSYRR
T2 sequence (Q13547 whole entry): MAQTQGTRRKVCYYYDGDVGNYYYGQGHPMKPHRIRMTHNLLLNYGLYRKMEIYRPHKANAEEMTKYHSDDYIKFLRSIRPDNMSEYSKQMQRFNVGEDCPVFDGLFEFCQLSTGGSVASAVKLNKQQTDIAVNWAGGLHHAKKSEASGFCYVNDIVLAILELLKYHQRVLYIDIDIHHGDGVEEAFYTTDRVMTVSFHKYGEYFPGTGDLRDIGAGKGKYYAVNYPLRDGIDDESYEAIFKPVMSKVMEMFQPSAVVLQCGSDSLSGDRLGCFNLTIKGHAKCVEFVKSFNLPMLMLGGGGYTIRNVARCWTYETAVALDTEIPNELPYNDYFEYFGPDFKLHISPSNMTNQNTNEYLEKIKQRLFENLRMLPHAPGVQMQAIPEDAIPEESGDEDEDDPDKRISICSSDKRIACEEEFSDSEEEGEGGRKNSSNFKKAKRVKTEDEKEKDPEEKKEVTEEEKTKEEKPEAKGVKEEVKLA

## N=C(N)NCCC[C@@H]1NC(=O)[C@@H](CCCNC(=N)N)NC(=O)[C@H]2CCCN2C(=O)[C@@H](Cc2c[nH]cn2)NC(=O)[C@H](Cc2ccc(O)cc2)NC(=O)[C@H](CCCCCS)NC(=O)[C@H](CCc2ccccc2)NC(=O)[C@@H](CO)NC(=O)[C@H](CC(=O)O)NC1=O [des3.3.1, SHA-Tyr-dHis-dPro-dArg-Arg-Asp-dSer-C27] (HELM PEPTIDE1{[O=C([C@H](CCCCCS)N[*:1])[*:2]].Y.[dH].[dP].[dR].R.D.[dS].[O=C([C@H](CCc1ccccc1)N[*:1])[*:2]]}$PEPTIDE1,PEPTIDE1,1:R1-9:R2$$$V2.0)
HDAC3; Conc. 1.00E-05 M, t1
  HDAC3 activity raw data (signal): -3010
HDAC3; Conc. 1.00E-05 M, t2
  HDAC3 activity raw data (signal): -2975
HDAC3; Conc. 1.11E-06 M, t1
  HDAC3 activity raw data (signal): -3312
HDAC3; Conc. 1.11E-06 M, t2
  HDAC3 activity raw data (signal): 10427
HDAC3; Conc. 1.23E-07 M, t1
  HDAC3 activity raw data (signal): 21751
HDAC3; Conc. 1.23E-07 M, t2
  HDAC3 activity raw data (signal): 40450
HDAC3; Conc. 1.37E-08 M, t1
  HDAC3 activity raw data (signal): 79797
HDAC3; Conc. 1.37E-08 M, t2
  HDAC3 activity raw data (signal): 111435
HDAC3; Conc. 1.52E-09 M, t1
  HDAC3 activity raw data (signal): 143913
HDAC3; Conc. 1.52E-09 M, t2
  HDAC3 activity raw data (signal): 186935
HDAC3; Conc. 3.33E-06 M, t1
  HDAC3 activity raw data (signal): -4595
HDAC3; Conc. 3.33E-06 M, t2
  HDAC3 activity raw data (signal): 4931
HDAC3; Conc. 3.70E-07 M, t1
  HDAC3 activity raw data (signal): 9528
HDAC3; Conc. 3.70E-07 M, t2
  HDAC3 activity raw data (signal): 17560
HDAC3; Conc. 4.12E-08 M, t1
  HDAC3 activity raw data (signal): 66179
HDAC3; Conc. 4.12E-08 M, t2
  HDAC3 activity raw data (signal): 74103
HDAC3; Conc. 4.57E-09 M, t1
  HDAC3 activity raw data (signal): 114353
HDAC3; Conc. 4.57E-09 M, t2
  HDAC3 activity raw data (signal): 144441
HDAC3; Conc. 5.08E-10 M, t1
  HDAC3 activity raw data (signal): 223427
HDAC3; Conc. 5.08E-10 M, t2
  HDAC3 activity raw data (signal): 239829
HDAC1; peptide conc. 1.00E-06 M, listed as des3.3.1_t1
  HDAC1 activity raw data (signal): 15410
HDAC1; peptide conc. 1.00E-06 M, listed as des3.3.1_t2
  HDAC1 activity raw data (signal): 7555
HDAC1; peptide conc. 1.11E-07 M, listed as des3.3.1_t1
  HDAC1 activity raw data (signal): 112128
HDAC1; peptide conc. 1.11E-07 M, listed as des3.3.1_t2
  HDAC1 activity raw data (signal): 105674
HDAC1; peptide conc. 1.23E-08 M, listed as des3.3.1_t1
  HDAC1 activity raw data (signal): 518542
HDAC1; peptide conc. 1.23E-08 M, listed as des3.3.1_t2
  HDAC1 activity raw data (signal): 461507
HDAC1; peptide conc. 1.37E-09 M, listed as des3.3.1_t1
  HDAC1 activity raw data (signal): 889775
HDAC1; peptide conc. 1.37E-09 M, listed as des3.3.1_t2
  HDAC1 activity raw data (signal): 866345
HDAC1; peptide conc. 1.52E-10 M, listed as des3.3.1_t1
  HDAC1 activity raw data (signal): 1024825
HDAC1; peptide conc. 1.52E-10 M, listed as des3.3.1_t2
  HDAC1 activity raw data (signal): 1088311
HDAC1; peptide conc. 3.33E-07 M, listed as des3.3.1_t1
  HDAC1 activity raw data (signal): 46006
HDAC1; peptide conc. 3.33E-07 M, listed as des3.3.1_t2
  HDAC1 activity raw data (signal): 42579
HDAC1; peptide conc. 3.70E-08 M, listed as des3.3.1_t1
  HDAC1 activity raw data (signal): 265387
HDAC1; peptide conc. 3.70E-08 M, listed as des3.3.1_t2
  HDAC1 activity raw data (signal): 253770
HDAC1; peptide conc. 4.12E-09 M, listed as des3.3.1_t1
  HDAC1 activity raw data (signal): 789498
HDAC1; peptide conc. 4.12E-09 M, listed as des3.3.1_t2
  HDAC1 activity raw data (signal): 714925
HDAC1; peptide conc. 4.57E-10 M, listed as des3.3.1_t1
  HDAC1 activity raw data (signal): 1015951
HDAC1; peptide conc. 4.57E-10 M, listed as des3.3.1_t2
  HDAC1 activity raw data (signal): 1019110
HDAC1; peptide conc. 5.08E-11 M, listed as des3.3.1_t1
  HDAC1 activity raw data (signal): 1072870
HDAC1; peptide conc. 5.08E-11 M, listed as des3.3.1_t2
  HDAC1 activity raw data (signal): 1116290
HDAC6; Conc. 1.00E-05 M, t1
  HDAC6 activity raw data (signal): 557
HDAC6; Conc. 1.00E-05 M, t2
  HDAC6 activity raw data (signal): -139
HDAC6; Conc. 1.11E-06 M, t1
  HDAC6 activity raw data (signal): 10535
HDAC6; Conc. 1.11E-06 M, t2
  HDAC6 activity raw data (signal): 12694
HDAC6; Conc. 1.23E-07 M, t1
  HDAC6 activity raw data (signal): 31520
HDAC6; Conc. 1.23E-07 M, t2
  HDAC6 activity raw data (signal): 38979
HDAC6; Conc. 1.37E-08 M, t1
  HDAC6 activity raw data (signal): 82998
HDAC6; Conc. 1.37E-08 M, t2
  HDAC6 activity raw data (signal): 93685
HDAC6; Conc. 1.52E-09 M, t1
  HDAC6 activity raw data (signal): 115704
HDAC6; Conc. 1.52E-09 M, t2
  HDAC6 activity raw data (signal): 134545
HDAC6; Conc. 3.33E-06 M, t1
  HDAC6 activity raw data (signal): 4544
HDAC6; Conc. 3.33E-06 M, t2
  HDAC6 activity raw data (signal): 5827
HDAC6; Conc. 3.70E-07 M, t1
  HDAC6 activity raw data (signal): 20428
HDAC6; Conc. 3.70E-07 M, t2
  HDAC6 activity raw data (signal): 19976
HDAC6; Conc. 4.12E-08 M, t1
  HDAC6 activity raw data (signal): 50772
HDAC6; Conc. 4.12E-08 M, t2
  HDAC6 activity raw data (signal): 68185
HDAC6; Conc. 4.57E-09 M, t1
  HDAC6 activity raw data (signal): 115536
HDAC6; Conc. 4.57E-09 M, t2
  HDAC6 activity raw data (signal): 120171
HDAC6; Conc. 5.08E-10 M, t1
  HDAC6 activity raw data (signal): 151999
HDAC6; Conc. 5.08E-10 M, t2
  HDAC6 activity raw data (signal): 154121
